Literature values in US20150072881A1 (priority 2010, published 2015).
“Also recorded” adds a separate entry of the source. Ends that are not written are not given here.

Experiments:
dopamine = settings: directly or indirectly
[1] = system: genes (and gene products, eg., mRNA or protein); settings: in vivo
[2] = system: PC12 clonal cell line from chromaffin adrenal cells
Pomc = settings: anterior pituitary cell line
[3] = system: Leptin receptor expression in VTA
[4] = system: opiate receptor-like 1 (OPRL-1); settings: amygdala of alcoholics
pronociceptin (PNOC) = settings: hippocampus of alcoholics
Sgk1 = settings: Western blotting; morphine-induced
Tsc22d3 = settings: Western blotting; drug-regulated gene

Compound: CN1CCCC1c1cccnc1 (stereo not drawn) [nicotine]
- effect on dopamine release or re-uptake (dopamine): enhance release or block re-uptake of dopamine
- mRNA decrease [1]: POMC in MBH which was observed after 21 days of spontaneous; also recorded: withdrawl from nicotine; Pdyn in ventral shell of NAc [1]
- mRNA increase [1]: Mu receptors in VTA; POMC in Arc; POMC in AL of the; also recorded: pituitary; Pdyn in CPu after nicotine withdrawl; Pdvn in HPT [1]; also recorded: c-fos in bed nucleus of stria terminalis, nucleus accumbens shell; also recorded: CREB phosphorylation when exposed to situation where; also recorded: MOR expression [4]; also recorded: c fos in limbic regions of adolescents [5]
- mRNA decrease [2]: Dopamine D2 receptor and tyrosine hydroxylase in PC12 clonal cell line

Compound: COc1ccc2c(c1)[C@]13CCCC[C@@H]1[C@H](C2)N(C)CC3 [Dextromethorphan]
- mRNA increase [1]: 40 mg/kg ip in rats caused increase of tyrosine hydroxylase (TH)

Compound: CCCN(CCC)C1Cc2cc(OC)c(OC)cc2C1 [U99194A]
- mRNA increase [1]: c-fos (similar pattern to that produced by d-amphetamine) in

Compound: C[C@@H]1NCCc2cc(O)c(O)cc21 [S(−)-salsolinol]
- cAMP level / production (cAMP): Decrease in cAMP level occurs after treatment with S(−)-SAL,
- mRNA decrease (Pomc): POMC anterior pituitary cell line [1]

Compound: Cl.O=S(=O)(NCCNCC=Cc1ccc(Br)cc1)c1cccc2cnccc12 [H89, N-(2-[p-bromocinnamylamino]ethyl)-5-isoquinoline-sulfonamide hudrochloride]
- blockade of substance-induced mRNA increase [1]: CART - effect attenuated by inhibition of PKA with H89 [N-(2-

Compound: Leptin: Leptin administered directly to VTA
- firing rate ([3]; VTA): reduction
- intracellular JAK-STAT pathway ([3]; VTA): activates
- food intake ([3]; direct administration to VTA): Direct administration of leptin to VTA caused decreased food intake while

Compound: CN(C)CCC=C1c2ccccc2CCc2ccccc21 [Amitriptyline]
- mRNA increase [1]: dopamine D3 receptor mRNA in shell of the nucleus accumbens;; also recorded: D1 and D2 receptors [1]

Compound: CCO [ethanol]
- effect on dopamine release or re-uptake (dopamine): enhance release or block re-uptake of dopamine
- opiate receptor-like 1 (OPRL-1) mRNA decrease [4]: opiate receptor-like 1 (OPRL-1) 1.4-fold in amygdala of alcoholics [2]
- pronociceptin (PNOC) mRNA decrease (pronociceptin (PNOC)): pronociceptin (PNOC), 1.7-fold in hippocampus of alcoholics

Compound: CC(N)Cc1ccccc1 (stereo not drawn) [Amphetamine]
- mRNA decrease [1]: Penk in CeA and anterior medial CPu [1]; also recorded: GluR1 in nucleus acumbens shell, GluR2 in core and shell [3]
- mRNA increase [1]: Penk in frontal cortex; Pdyn in AMG [1]; also recorded: mGluR8 in rat dorsal and ventral striatum, as well as cortex,; also recorded: After 3 days of withdrawl, GluR1 in PFC [3]; also recorded: Mu receptors in VTA; Pdyn in CPu and NAc [1]

Compound: CCN1CCC[C@H]1CNC(=O)c1c(O)c(Cl)cc(Cl)c1OC [raclopride]
- blockade of substance-induced mRNA increase [1]: Cart in nucleus accumbens (effect blocked by both SCH-

Compound: CN[C@@H](C)Cc1ccccc1 [Methamphetamine]
- mRNA increase [1]: Pdyn in HPT [1]; also recorded: Increased TNF-alpha in normal animals [2]

Compound: Cc1c(C(=O)NN2CCCCC2)nn(-c2ccc(Cl)cc2Cl)c1-c1ccc(Cl)cc1 [SR 141716A]
- inhibition of THC-induced MAPK/ERK activation (MAPK/ERK; in vivo): accumbens. This activation is totally inhibited by selective

Compound: CNCCCN1c2ccccc2CCc2ccccc21 [Desipramine]
- mRNA increase [1]: dopamine D3 receptor mRNA in shell of the nucleus accumbens

Compound: CCCCCc1cc(O)c2c(c1)OC(C)(C)[C@@H]1CCC(C)=C[C@@H]21 [THC, Delta-tetrahydrocannabinol]
- effect on dopamine release or re-uptake (dopamine): enhance release or block re-uptake of dopamine
- mRNA increase [1]: Increased Penk in NAc and CPu, Tu and Pir, HPT (both PVN; also recorded: BDNF in reward center (nucleus accumbens, medial prefrontal
- activation (phosphorylation) of MAPK/ERK (MAPK/ERK; dorsal striatum and nucleus accumbens): THC induces a progressive and transient activation

Compound: CN(C)CCCN1c2ccccc2CCc2ccccc21 [Imipramine]
- mRNA increase [1]: dopamine D3 receptor mRNA in shell of the nucleus accumbens;

Compound: CC(C)C[C@H](N)C(=O)O [Leucine]
- mRNA decrease [1]: FTO in hypothalamus of rodents [1]

Compound: CCCCCCCCCC(=O)O[C@H]1CC[C@H]2[C@@H]3CCC4=CC(=O)CC[C@@H]4[C@H]3CC[C@]12C [Nandrolone decanoate]
- mRNA decrease [1]: Dopamine D(1)-receptor subtype in the caudate putamen and nucleus
- mRNA increase [1]: Dopamine D(2) receptor at the lowest doeses in the caudate

Compound: N[C@@H]1C[C@H]1c1ccccc1 (racemic) [Tranylcypromine]
- mRNA increase [1]: dopamine D3 receptor mRNA in shell of the nucleus accumbens

Compound: CCCCC/C=C\C/C=C\C/C=C\C/C=C\CCCC(=O)N[C@H](C)CO [R-methanandamide]
- mRNA increase [1]: Increased Penk in NAc and CPu, Tu and Pir, HPT (both PVN

Compound: CC1NCCc2cc(O)c(O)cc21 (stereo not drawn) [R (+)- salsolinol]
- cAMP level / production (cAMP): whereas R(+)- SAL does not affect cAMP production [1]
- mRNA decrease (Pomc): POMC anterior pituitary cell line [1]

Compound: CN1CC[C@]23c4c5ccc(O)c4O[C@H]2[C@@H](O)C=C[C@H]3[C@H]1C5 [morphine]
- level of the Sgk1 protein (significant decrease) (Sgk1): 0.75 fold
- Tsc22d3 protein level (increase) (Tsc22d3): approximately 1.5 fold

Compound: CCCCCCC(C)(C)c1ccc([C@@H]2C[C@H](O)CC[C@H]2CCCO)c(O)c1 [CP-55,940]
- mRNA increase [1]: Increased Penk in NAc and CPu, Tu and Pir, HPT (both PVN

Compound: Nc1ncnc2c1ncn2[C@@H]1O[C@@H]2COP(O)(=S)O[C@H]2[C@H]1O (single isomer, unassigned) [Rp-cAMPS, adenosine-3′,5′ cyclinc monophosphorothioate, Rp-isomer]
- blockade of substance-induced mRNA increase [1]: CART - effect attenuated by inhibition of PKA with H89 [N-(2-

Compound: CC(=O)Oc1ccc2c3c1O[C@H]1[C@@H](OC(C)=O)C=C[C@H]4[C@@H](C2)N(C)CC[C@@]341 [Heroin]
- mRNA decrease [1]: DAT in paranigral nucleus and mesolimbic division of the ventral tegmental; also recorded: area. Reduction of Nurr1expression with age in heroin users [2]; also recorded: tyrosine hydroxylase in mesolimbic dopamine neurons [3]
- mRNA increase [1]: heroin abuse. Express higher Penk mRNA [1]; also recorded: TH and alpha synuclein in VTA PN in heroin users with no; also recorded: Penk; NAc PENK in Met/Met (control) heroin abusers [3]

Compound: Substance P (RPKPQQFFGLM; not fully specified (C-terminus); ends and bridges not checked; UniProt P20366 58-68, looked up)
- mRNA decrease [1]: D2 receptor in nucleus accumbens and frontal cortex [1]

Compound: CC(N)Cc1ccc(Cl)cc1 (stereo not drawn) [para-chloroamphetamine]
- mRNA decrease [1]: [1] repeated stress in pre-treated rats led to downregulation of BDNF mRNA
- mRNA increase [1]: [1] repeated stress in pre-treated animals led to less
